# Assay results reported in patent US7109193B2, “Tricyclic diazepines tocolytic oxytocin receptor antagonists” (Wyeth, priority 2001, dated 2006).
# Molecular target: T1, human vasopressin V1a receptor subtype (Homo sapiens, UniProt P37288)
# T1 construct: host or cells: CHO cells (pZeoSV vector for the Thibonnier line)
# Test: Vasopressin binding in Chinese Hamster Ovary cell membranes expressing human vasopressin V1a subtype receptors
# Details: 100 nM, CHO cell membranes, [3H]Manning ligand, values without parentheses
# How it was run: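 Membranes from CHO cells expressing human V1a receptor were incubated with [3H]Manning ligand (added as 20 μL of 8 nM) in pH 7.4 Tris buffer with MgCl2, BSA and protease inhibitors, 60 min at room temperature. Bound radioactivity was counted after filtration; values are percent inhibition at a stated concentration or IC50.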
# T1 sequence (P37288 whole entry): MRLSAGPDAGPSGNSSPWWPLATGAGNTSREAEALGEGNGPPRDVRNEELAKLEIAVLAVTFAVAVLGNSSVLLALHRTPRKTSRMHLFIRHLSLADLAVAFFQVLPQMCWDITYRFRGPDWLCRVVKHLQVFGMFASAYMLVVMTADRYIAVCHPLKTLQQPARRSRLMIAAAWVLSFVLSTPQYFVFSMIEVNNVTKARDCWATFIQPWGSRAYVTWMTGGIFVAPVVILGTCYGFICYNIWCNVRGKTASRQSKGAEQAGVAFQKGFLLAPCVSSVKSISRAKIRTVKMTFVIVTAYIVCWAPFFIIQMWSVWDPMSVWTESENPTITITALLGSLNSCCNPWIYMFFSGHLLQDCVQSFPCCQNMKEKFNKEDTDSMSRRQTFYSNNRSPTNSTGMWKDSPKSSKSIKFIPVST
row,SMILES,inhibition at 0.1 µM [%]
1,"COc1cccc(-c2ccc(C(=O)N3Cc4ccc(C(=O)N5CCN(C)CC5)n4Cc4ccccc43)cc2OC)c1 [Example 57, {10-[(2,3′-Dimethoxy[1,1′-biphenyl]-4-yl)carbonyl]-10,11-dihydro-5H-pyrrolo[2,1-c][1,4]benzodiazepin-3-yl}(4-methyl-1-piperazinyl)methanone]",15
2,"COc1cc(C(=O)N2Cc3ccc(C(=O)n4ccnc4)n3Cc3ccccc32)ccc1-c1cccc2ccccc12 [Example 291, 1H-Imidazol-1-yl-{10-[3-methoxy-4-(1-naphthyl)benzoyl]-10,11-dihydro-5H-pyrrolo[2,1-c][1,4]benzodiazepin-3-yl}methanone]",2
3,"COc1cc(-c2ccccc2C)c(Cl)cc1C(=O)N1Cc2ccc(C(=O)NCCCN(C)C)n2Cc2ccccc21 [Example 78, 10-[(6-Chloro-3-methoxy-2′-methyl[1,1′-biphenyl]-4-yl)carbonyl]-N-[3-(dimethylamino)propyl]-10,11-dihydro-5H-pyrrolo[2,1-c][1,4]benzodiazepine-3-carboxamide]",-3
4,"COc1cc(C(=O)N2Cc3ccc(C(=O)NCCCn4ccnc4)n3Cc3ccccc32)ccc1-n1c(C)ccc1C [Example 312, 10-[4-(2,5-Dimethyl-1H-pyrrol-1-yl)-3-methoxybenzoyl]-N-[3-(1H-imidazol-1-yl)propyl]-10,11-dihydro-5H-pyrrolo[2,1-c][1,4]benzodiazepine-3-carboxamide]",7
5,"COc1ccccc1-c1ccc(C(=O)N2Cc3ccc(C(=O)N[C@H]4CN5CCC4CC5)n3Cc3ccccc32)cc1 [Example 296, N-[(3R)-1-Azabicyclo[2.2.2]oct-3-yl]-10-[(2′-methoxy[1,1′-biphenyl]-4-yl)carbonyl]-10,11-dihydro-5H-pyrrolo[2,1-c][1,4]benzodiazepine-3-carboxamide]",31
6,"Cc1ccccc1-c1ccc(C(=O)N2Cc3ccc(C(=O)NCCCN(C)C)n3Cc3ccccc32)cc1 [Example 76, N-[3-(Dimethylamino)propyl]-10-[(2′-methyl[1,1′-biphenyl]-4-yl)carbonyl]-10,11-dihydro-5H-pyrrolo[2,1-c][1,4]benzodiazepine-3-carboxamide]",58
7,"COc1cc(-c2ccccc2C)c(Cl)cc1C(=O)N1Cc2ccc(C(=O)N[C@@H](CCCCNC(=O)OC(C)(C)C)C(N)=O)n2Cc2ccccc21 [Example 304, tert-Butyl (5S)-6-amino-5-[({10-[(6-chloro-3-methoxy-2′-methyl[1,1′-biphenyl]-4-yl)carbonyl]-10,11-dihydro-5H-pyrrolo[2,1-c][1,4]benzodiazepin-3-yl}carbonyl)amino]-6-oxohexylcarbamate]",-7
8,"CN1CCN(C(=O)c2ccc3n2Cc2ccccc2N(C(=O)c2ccc(-c4cccc5ccccc45)cc2Cl)C3)CC1 [Example 58, {10-[2-Chloro-4-(1-naphthyl)benzoyl]-10,11-dihydro-5H-pyrrolo[2,1-c][1,4]benzodiazepin-3-yl}(4-methyl-1-piperazinyl)methanone]",5
9,"COc1cccc(-c2cc(OC)c(C(=O)N3Cc4ccc(C(=O)N[C@@H](CCCCNC(=O)OC(C)(C)C)C(N)=O)n4Cc4ccccc43)cc2Cl)c1 [Example 302, tert-Butyl (5S)-6-amino-5-[({10-[(6-chloro-3,3′-dimethoxy[1,1′-biphenyl]-4-yl)carbonyl]-10,11-dihydro-5H-pyrrolo[2,1-c][1,4]benzodiazepin-3-yl}carbonyl)amino]-6-oxohexylcarbamate]",-15
